Read-outs that look alike come from different tables or passages of the source.
How the values were obtained:
[1] = system: urinary glucose excretion; set-up: method as in PMID 35395697; conditions: single oral administration, dose range 0.2 to 5.0 mg, healthy male volunteers; cited from earlier work
[2] = Tissue distribution after single or repeated oral administration (7 or 14 days) in mice; type: in vivo, ICR mice; conditions: for Kp / AUC(0-t): ICR, mouse, po, 1 mg/kg; for Kp: read-out: AUC Ratio (AUC48 h, tissue / AUC48 h, plasma); for AUC(0-t): plasma, read-out: AUC48 h; for AUC48 h: oral 1 mg/kg
Protocol: Thirty-five ICR mice were randomly divided into five groups (n = 7 per sampling time point) and administered with an enavogliflozin solution (1 mg/kg, once daily) for 14 days via oral gavage. Another thirty-five ICR mice were randomly divided into five groups (n = 7 per sampling time point) and administered with an enavogliflozin solution (1 mg/kg, once daily) for 7 days via oral gavage. The other thirty-five ICR mice were randomly divided into five groups (n = 7 per sampling time point) and administered with an enavogliflozin solution at a dose of 1 mg/kg via oral gavage. Blood samples (approximately 0.2 mL) were collected at 1, 2, 8, 24, and 48 h via the abdominal artery. Subsequently, whole tissues, including kidney, liver, small intestine, and large intestine, were isolated. An aliquot (30 µL) of plasma and aliquots (50 µL) of tissue homogenate samples were prepared and stored with the same procedures described above.
(§1) Concentrations of enavogliflozin in plasma and tissue homogenate samples were analyzed using an Agilent 6430 triple quadrupole liquid chromatography-mass spectrometry (LC–MS/MS) system (Agilent, Wilmington, DE, USA) following a previously published method.
(§2) The data were expressed as the means ± standard deviation for the groups. Pharmacokinetic parameters, such as the area under the plasma concentration–time curve during the period of observation (AUClast), AUC to infinite time (AUC∞), clearance (CL), and volume of distribution at steady-state (Vd,ss), the terminal half-life (t1/2), and mean residence time (MRT) were calculated using non-compartment analysis with WinNonlin software (version 5.1; Pharsights, Cary, NC, USA). The AUC ratios were calculated by dividing the AUClast of enavogliflozin in the tissue samples by the plasma AUClast values of enavogliflozin [15].

hepatocytes [3] = system: hepatocytes; set-up: method as in PMID 32932946; conditions: rat hepatocytes; cited from earlier work
hepatocytes [4] = system: hepatocytes; set-up: method as in PMID 32932946; conditions: monkey hepatocytes; cited from earlier work
[5] = Tissue distribution after single oral administration in mice; type: in vivo, ICR mice; conditions: single oral 1 mg/kg; for half-life: read-out: T1/2 (elimination half-life) (converted); for AUC Ratio (AUC24 h, tissue / AUC24 h, plasma): 1 mg/kg
Protocol: Thirty-six ICR mice were fasted with water ad libitum for at least 12 h before oral administration of enavogliflozin and randomly divided into six groups (n = 6 per each sampling time point) and administered with an enavogliflozin solution at a dose of 1 mg/kg via oral gavage. Blood samples (approximately 0.2 mL) were collected at 0.5, 1, 2, 4, 8, 24 h via the abdominal artery. Subsequently, whole tissues, including stomach, small intestine, large intestine, liver, kidney, brain, heart, lung, spleen, and testis, were isolated. Blood samples were centrifuged at 12,000× g for 1 min to separate plasma. Tissue samples were minced thoroughly and homogenized with four volumes of saline using a tissue grinder. An aliquot (30 µL) of plasma and aliquots (50 µL) of tissue homogenate samples were stored at −80 °C until analysis.
as §1, §2

## OC[C@H]1O[C@@H](c2cc(Cc3ccc(C4CC4)cc3)c(Cl)c3c2CCO3)[C@H](O)[C@@H](O)[C@@H]1O [enavogliflozin, (2S,3R,4R,5S,6R)-2-(7-chloro-6-(4-cyclopropylbenzyl) -2,3-dihydrobenzofuran-4-yl)-6-(hydroxymethyl)tetrahydro-2H-pyran-3,4,5-triol]
[1]
  urinary glucose excretion: dose-dependent increase
[2]; kidney, repeated dose for 7 days, kidney
  Kp: 37.6 ± 5.9
[2]; kidney, repeated dose for 14 days, kidney
  Kp: 38.4 ± 18
[2]; kidney, single dose, kidney
  Kp: 38.7 ± 6.3
[2]; large intestine, repeated dose for 7 days, large intestine
  Kp: 2.33 ± 0.34
[2]; large intestine, repeated dose for 14 days, large intestine
  Kp: 2.2 ± 0.71
[2]; large intestine, single dose, large intestine
  Kp: 3.24 ± 1.1
[2]; liver, repeated dose for 7 days, liver
  Kp: 3.77 ± 0.73
[2]; liver, repeated dose for 14 days, liver
  Kp: 4.37 ± 2.6
[2]; liver, single dose, liver
  Kp: 4.85 ± 0.64
[2]; repeated dose for 7 days
  AUC(0-t): 2090 ± 290 ng·h/mL
[2]; repeated dose for 14 days
  AUC(0-t): 2360 ± 690 ng·h/mL
[2]; single dose
  AUC(0-t): 2130 ± 270 ng·h/mL
[2]; small intestine, repeated dose for 7 days, small intestine
  Kp: 4.5 ± 0.89
[2]; small intestine, repeated dose for 14 days, small intestine
  Kp: 3.4 ± 1.5
[2]; small intestine, single dose, small intestine
  Kp: 3.47 ± 0.49
[2]; repeated dose for 7 days, kidney
  AUC48 h: 77.2 ± 6.3 µg·h/g
[2]; repeated dose for 7 days, large intestine
  AUC48 h: 4.88 ± 1.1 µg·h/g
[2]; repeated dose for 7 days, liver
  AUC48 h: 7.89 ± 2.1 µg·h/g
[2]; repeated dose for 7 days, small intestine
  AUC48 h: 9.39 ± 2.1 µg·h/g
[2]; repeated dose for 14 days, kidney
  AUC48 h: 81.6 ± 4.8 µg·h/g
[2]; repeated dose for 14 days, large intestine
  AUC48 h: 4.90 ± 1.5 µg·h/g
[2]; repeated dose for 14 days, liver
  AUC48 h: 8.85 ± 1.8 µg·h/g
[2]; repeated dose for 14 days, small intestine
  AUC48 h: 7.46 ± 2.3 µg·h/g
[2]; single dose, kidney
  AUC48 h: 80.9 ± 5.1 µg·h/g
[2]; single dose, large intestine
  AUC48 h: 5.68 ± 1.6 µg·h/g
[2]; single dose, liver
  AUC48 h: 10.2 ± 1.0 µg·h/g
[2]; single dose, small intestine
  AUC48 h: 7.30 ± 0.77 µg·h/g
Hepatocytes [3]
  In vitro hepatic clearance: 8.3 mL/min/kg
Hepatocytes [4]
  In vitro hepatic clearance: 18.5 mL/min/kg
[5]; male, ICR, mouse, kidney (versus plasma), kidney, read-out: AUC Ratio (AUC24 h, tissue / AUC24 h, plasma)
  Kp: 41.9
[5]; male, ICR, mouse, kidney and intestinal tract (versus plasma), read-out: AUC ratio of kidney and intestinal tract compared with plasma
  Kp: > 10
[5]; male, ICR, mouse, large intestine (versus plasma), range over stomach, small and large intestine, read-out: plasma AUC ratio, gastrointestinal tract
  Kp: 8.5 to 12.1
[5]; male, ICR, mouse, liver (versus plasma), liver, read-out: AUC Ratio (AUC24 h, tissue / AUC24 h, plasma)
  Kp: 5.8
[5]; male, ICR, mouse, heart, read-out: AUC Ratio (AUC24 h, tissue / AUC24 h, plasma)
  Kp: 1.7 ± 0.2
[5]; male, ICR, mouse, heart
  half-life: 3.6 h
[5]; male, ICR, mouse, kidney
  half-life: 29 h
[5]; male, ICR, mouse, large intestine, read-out: AUC Ratio (AUC24 h, tissue / AUC24 h, plasma)
  Kp: 8.5 ± 4.5
[5]; male, ICR, mouse, large intestine
  half-life: 3.4 h
[5]; male, ICR, mouse, liver
  half-life: 4.4 h
[5]; male, ICR, mouse, lung, read-out: AUC Ratio (AUC24 h, tissue / AUC24 h, plasma)
  Kp: 2 ± 0.2
[5]; male, ICR, mouse, lung
  half-life: 9.6 h
[5]; male, ICR, mouse, plasma, read-out: AUC24 h
  AUC(0-t): 1360 ± 260 ng·h/mL
[5]; male, ICR, mouse, plasma
  half-life: 3.7 h
[5]; male, ICR, mouse, small intestine, read-out: AUC Ratio (AUC24 h, tissue / AUC24 h, plasma)
  Kp: 10.8 ± 3
[5]; male, ICR, mouse, small intestine
  half-life: 2.6 h
[5]; male, ICR, mouse, spleen, read-out: AUC Ratio (AUC24 h, tissue / AUC24 h, plasma)
  Kp: 0.4
[5]; male, ICR, mouse, spleen
  half-life: 2.7 h
[5]; male, ICR, mouse, stomach, read-out: AUC Ratio (AUC24 h, tissue / AUC24 h, plasma)
  Kp: 12.1 ± 7
[5]; male, ICR, mouse, stomach
  half-life: 3.4 h
[5]; male, ICR, mouse, testis, read-out: AUC Ratio (AUC24 h, tissue / AUC24 h, plasma)
  Kp: 0.5 ± 0.1
[5]; male, ICR, mouse, testis
  half-life: 22 h
[5]; male, ICR, mouse, versus plasma, read-out: AUC ratio in stomach, small intestine, large intestine, liver
  Kp: > 5
[5]; brain
  Concentration in brain tissue: not detected
[5]; heart
  AUC24 h: 2.19 ± 0.35 µg·h/g
  K (elimination constant): 0.194 h⁻¹
[5]; kidney
  AUC24 h: 54.5 ± 3.5 µg·h/g
  K (elimination constant): 0.024 h⁻¹
  AUC Ratio (AUC24 h, tissue / AUC24 h, plasma): 41.9 ± 7.7
[5]; large intestine
  AUC24 h: 11.1 ± 4.3 µg·h/g
  K (elimination constant): 0.204 h⁻¹
[5]; liver
  AUC24 h: 8.08 ± 1.1 µg·h/g
  K (elimination constant): 0.159 h⁻¹
  AUC Ratio (AUC24 h, tissue / AUC24 h, plasma): 5.8 ± 0.4
[5]; lung
  AUC24 h: 3.04 ± 0.29 µg·h/g
  K (elimination constant): 0.072 h⁻¹
[5]; plasma
  K (elimination constant): 0.185 h⁻¹
[5]; small intestine
  AUC24 h: 14.2 ± 3.4 µg·h/g
  K (elimination constant): 0.267 h⁻¹
[5]; spleen
  AUC24 h: 0.58 ± 0.11 µg·h/g
  K (elimination constant): 0.255 h⁻¹
[5]; stomach
  AUC24 h: 15.1 ± 6.4 µg·h/g
  K (elimination constant): 0.206 h⁻¹
[5]; testis
  AUC24 h: 0.95 ± 0.15 µg·h/g
  K (elimination constant): 0.031 h⁻¹

— publication PMC9230590, “Pharmacokinetics and Tissue Distribution of Enavogliflozin in Mice and Rats” (Pharmaceutics, 2022)
